Experimental data: US20230391772A1, “METHODS AND COMPOSITIONS FOR TARGETED PROTEIN DEGRADATION” (Ranok Therapeutics (Hangzhou) Co. Ltd., priority 2020, published 2023)

Legend:
HSP90a protein = target: T1, HSP90a protein (Homo sapiens, UniProt P07900); assay: HSP90α-binding fluorescent polarization (FP) assay, BODIPY-labeled RNK04010 probe; details: FP competition with RNK04010 (BODIPY-labeled), 5 nM, 300 min at 25° C.
T1 construct: purchased BPS Bioscience 50298
In short: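 Competitive FP with N-terminal HSP90a; probe at 5 nM final, either BODIPY-labeled triazolone RNK04010 or FITC-geldanamycin. Test compounds as 2.5-fold dilutions from 20 μM to 5.2 nM. Incubated at 25 °C for 300 min (RNK04010) or 120 min (FITC-geldanamycin) before reading polarization.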

[1] = system: NCI-H23 human non-small cell lung cancer; assay: NCI-H23 CCK-8 proliferation assay; format: cell-based; details: NCI-H23 cells, 72 hr
Protocol: (§1) The following cancer cell lines were employed: BT-474 human breast carcinoma (ATCC, #HTB-20); MIA PaCa-2 human pancreatic carcinoma [2 copies KRAS(G12C)](ATCC, #CRL-1420); NCI-H23 human non-small cell lung cancer [1 copy KRAS(G12C)](ATCC, #CRL-5800); NCI-H358 human non-small cell lung cancer [1 copy KRAS(G12C)](ATCC, #CRL-5807); LU65A human lung carcinoma (Pharmaron, Beijing, China). Cell lines were cultured essentially according to ATCC and Pharmaron recommendations.
Cancer Cell Line Proliferation (CCK-8) Assays
3-fold serial dilutions of each test compound were prepared ranging from 20 μM to 1.02 nM.
% Inhibition=100−(D−B)/(S−B)*100%. • S: Absorbance of cells treated with DMSO • D: Absorbance of compound-treated cells • B: Absorbance of medium with DMSO without cells

[2] = system: NCI-H358 human non-small cell lung cancer; assay: NCI-H358 CCK-8 proliferation assay; format: cell-based; details: NCI-H358 cells, 72 hr
In short: (§2)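 Proliferation of mutant-KRAS(G12C) cells (2 copies in MIA PaCa-2, single copy in NCI-H358/NCI-H23) measured with CCK-8 after treatment across 20 μM–1.02 nM; inhibition expressed relative to vehicle-treated wells after subtracting no-cell background.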

KRAS(G12C) [3] = target: T2, KRAS(G12C) (Homo sapiens, UniProt P01116, G12C); assay: KRAS(G12C) Western blot protein degradation assay in MIA PaCa-2 cells; format: cell-based; parameters: host or cells: LU65A; details: 48 hr; for inhibition at 10 µM: 10,000 nM; for inhibition at 0.1562 µM: 156.2 nM; for inhibition at 0.3125 µM: 312.5 nM; for inhibition at 0.625 µM: 625 nM; for inhibition at 1.25 µM: 1250 nM; for inhibition at 2.5 µM: 2500 nM; for inhibition at 5 µM: 5000 nM
T2 sequence (P01116 1-188 isoform P01116-2 G12C): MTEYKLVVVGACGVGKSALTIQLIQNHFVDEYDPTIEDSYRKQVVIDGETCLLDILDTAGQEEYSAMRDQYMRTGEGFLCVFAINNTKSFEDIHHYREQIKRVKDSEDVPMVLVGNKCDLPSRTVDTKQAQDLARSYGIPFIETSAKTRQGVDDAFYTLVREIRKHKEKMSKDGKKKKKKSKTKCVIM
Protocol: as §1
KRAS(G12C) Western Blot Protein Degradation Assay
The MIA PaCa-2 human pancreatic carcinoma cell line and LU65A human lung cancer cell line, which expresses KRAS(G12C), were seeded in 6- or 12-well tissue culture plates, and after 1 hr, test compounds were added at various concentrations and incubated at 37° C./5% CO2 for 48 hr (MIA Paca-2) and 6 hr (LU65A) respectively. Cells were then washed with cold PBS, aspirated and cold RIPA buffer containing a protease/phosphatase inhibitor cocktail was added to lyse cells. After centrifugation, the total protein concentrations of cell lysates were determined using the BCA protein assay. Samples were normalized for equivalent protein concentrations, 5×SDS-PAGE loading buffer added and denatured at 100° C. for 10 min. 20 μl of each sample/well was loaded on a SDS-PAGE gel and electrophoresed for 20 min at 80 V, then 120 V for 1.5 hr. Gels were then electroblotted to nitrocellulose membranes using a wet-transfer method at 250 mA for 2.5 hr. Membranes were incubated with blocking buffer for 1 hr and washed 3 times with TBST for 5 min. Membranes were then incubated with anti-KRAS (Sigma-Aldrich, #SAB1404011) and anti-β-Actin monoclonal antibodies (Cell Signaling Technology, #3700) diluted in blocking buffer at 4° C. overnight per the manufacturer's recommendations. After washing 3 times, blots were incubated with appropriately labeled secondary antibodies for 1 hr at room temperature and washed again. Fluorescence imaging and quantitation was performed using a LI-COR Odyssey. Results was analyzed using GraphPad Prism 7 software. Compound degradation of was determined by the following equation and DC50 values (the concentration at which 50% of the maximal degradation of KRAS occurs) calculated using GraphPad Prism 7 software:
% Inhibition=100−(D−B)/(S−B)*100%. • S: Fluorescence intensity of cells with antibody • D: Fluorescence intensity of compound-treated cells with antibody • B: Fluorescence intensity of cells without antibody

KRAS(G12C) [4] = target: T2, KRAS(G12C); assay: KRAS(G12C)/SOS1 homogeneous time-resolved fluorescence (HTRF) assay; parameters: purchased Cisbio 63ADK000CB16PEG; details: absence of GTP, 4° C. for 3 hr, read-out: KRAS (G12C) binding
In short: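 HTRF kit measuring compound-induced block of KRAS(G12C)-SOS1 interaction without GTP. Compounds tested as 3-fold serial dilutions down to 1.02 nM, incubated with reaction components 3 h at 4 °C in sealed plates before fluorescence read.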

KRAS(G12C) [5] = target: T2, KRAS(G12C); assay: KRAS(G12C) Western blot protein degradation assay in LU65A cells; format: cell-based; parameters: LU65A human lung cancer cell line, which expresses KRAS(G12C); host or cells: LU65A; details: 6 hr
In short: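 Cells treated with compound at various concentrations at 37 °C for 48 hr (MIA PaCa-2) or 6 hr (LU65A), then lysed in RIPA. Protein-normalized lysates immunoblotted for KRAS with β-actin, fluorescence quantified; DC50 is the concentration giving 50% of maximal KRAS degradation.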

[6] = system: MIA PaCa-2 human pancreatic carcinoma; assay: MIA PaCa-2 CCK-8 proliferation assay; format: cell-based; details: Homo sapiens, MIA PaCa-2, 72 h, MIA PaCa-2 cells
In short: as §2

| Structure (SMILES) | IC50 (HSP90a protein) | EC50 [1] | EC50 [2] | inhibition at 10 µM (KRAS(G12C) [3]) | IC50 (KRAS(G12C) [4]) | DC50 (KRAS(G12C) [5]) | EC50 [6] | inhibition at 0.1562 µM (KRAS(G12C) [3]) | inhibition at 0.3125 µM (KRAS(G12C) [3]) | inhibition at 0.625 µM (KRAS(G12C) [3]) | inhibition at 1.25 µM (KRAS(G12C) [3]) | inhibition at 2.5 µM (KRAS(G12C) [3]) | inhibition at 5 µM (KRAS(G12C) [3]) |
| --- | --- | --- | --- | --- | --- | --- | --- | --- | --- | --- | --- | --- | --- |
| C=CC(=O)N1CCN(c2nc(NCCC(=O)NCCc3ccc(CN4CCC(Cc5ccc(-n6c(C(=O)NCC(F)(F)F)nnc6-c6cc(C(C)C)c(O)cc6O)cc5)CC4)cc3)nc3c2CCN(c2cccc4ccccc24)C3)C[C@H]1CC#N [Compound 108, (R)-4-(4-((1-(4-(2-(3-((4-(4-acryloyl-3-(cyanomethyl)piperazin-1-yl)-7-(naphthalen-1-yl)-5,6,7,8-tetrahydropyrido[3,4-d]pyrimidin-2-yl)amino)propanamido)ethyl)benzyl)piperidin-4-yl)methyl)phenyl)-5-(2,4-dihydroxy-5-isopropylphenyl)-N-(2,2,2-trifluoroethyl)-4H-1,2,4-triazole-3-carboxamide, trifluoroacetic acid, trifluoroacetic acid, trifluoroacetic acid, trifluoroacetic …] | 100 to 1000 nM | 100 to 1000 nM | 100 to 1000 nM | – | – | – | – | – | – | – | – | – | – |
| CCc1cc(-c2nnc(C(N)=O)n2-c2ccc(CN3CCN(CC4CCN(C(=O)CCNc5nc6c(c(N7CCN(C(C)=O)CC7)n5)CCN(c5cc(O)cc7ccccc57)C6)CC4)CC3)cc2)c(O)cc1O [Compound 69, 4-(4-((4-((1-(3-((4-(4-acetylpiperazin-1-yl)-7-(3-hydroxynaphthalen-1-yl)-5,6,7,8-tetrahydropyrido[3,4-d]pyrimidin-2-yl)amino)propanoyl)piperidin-4-yl)methyl)piperazin-1-yl)methyl)phenyl)-5-(5-ethyl-2,4-dihydroxyphenyl)-4H-1,2,4-triazole-3-carboxamide, trifluoroacetic acid] | < 100 nM | > 1000 nM | 100 to 1000 nM | – | – | – | – | – | – | – | – | – | – |
| CC(=O)N1CCN(c2nc(NCCC(=O)N3CCN(Cc4ccc(CN(C)Cc5ccc(-n6c(C(=O)NCC(F)(F)F)nnc6-c6cc(C(C)C)c(O)cc6O)cc5)cc4)CC3)nc3c2CCN(c2cc(O)cc4ccccc24)C3)CC1 [Compound 115, 4-(4-(((4-((4-(3-((4-(4-acetylpiperazin-1-yl)-7-(3-hydroxynaphthalen-1-yl)-5,6,7,8-tetrahydropyrido[3,4-d]pyrimidin-2-yl)amino)propanoyl)piperazin-1-yl)methyl)benzyl)(methyl)amino)methyl)phenyl)-5-(2,4-dihydroxy-5-isopropylphenyl)-N-(2,2,2-trifluoroethyl)-4H-1,2,4-triazole-3-carboxamide, trifluoroacetic acid] | 100 to 1000 nM | 100 to 1000 nM | 100 to 1000 nM | – | – | – | – | – | – | – | – | – | – |
| C=CC(=O)N1CCN(c2nc(OCCC(=O)N3CCC(CN4CCN(Cc5ccc(-n6c(O)nnc6-c6cc(C(C)C)c(O)cc6O)cc5)CC4)CC3)nc3c2CCN(c2cc(O)cc4ccccc24)C3)CC1 [Compound 15, 1-(4-(2-(3-(4-((4-(4-(3-(2,4-dihydroxy-5-isopropylphenyl)-5-hydroxy-4H-1,2,4-triazol-4-yl)benzyl)piperazin-1-yl)methyl)piperidin-1-yl)-3-oxopropoxy)-7-(3-hydroxynaphthalen-1-yl)-5,6,7,8-tetrahydropyrido[3,4-d]pyrimidin-4-yl)piperazin-1-yl)prop-2-en-1-one, trifluoroacetic acid] | < 100 nM | 100 to 1000 nM | 100 to 1000 nM | – | – | – | – | – | – | – | – | – | – |
| C=CC(=O)N1CCN(c2nc(OC[C@@H]3CCN(C(=O)C4CCN(Cc5ccc(-n6c(O)nnc6-c6cc(C(C)C)c(O)cc6O)cc5)CC4)C3)nc3c2CCN(c2cccc4cccc(Cl)c24)C3)C[C@@H]1CC#N [Compound 148, 2-((S)-1-acryloyl-4-(7-(8-chloronaphthalen-1-yl)-2-(((R)-1-(1-(4-(3-(2,4-dihydroxy-5-isopropylphenyl)-5-hydroxy-4H-1,2,4-triazol-4-yl)benzyl)piperidine-4-carbonyl)pyrrolidin-3-yl)methoxy)-5,6,7,8-tetrahydropyrido[3,4-d]pyrimidin-4-yl)piperazin-2-yl)acetonitrile] | < 100 nM | – | 100 to 1000 nM | 33 to 66% | 100 to 1000 nM | – | 100 to 1000 nM | < 33% | < 33% | < 33% | < 33% | < 33% | < 33% |

Other lines, results leading:

| IC50 (HSP90a protein) | EC50 [1] | EC50 [2] | inhibition at 10 µM (KRAS(G12C) [3]) | IC50 (KRAS(G12C) [4]) | DC50 (KRAS(G12C) [5]) | EC50 [6] | inhibition at 0.1562 µM (KRAS(G12C) [3]) | inhibition at 0.3125 µM (KRAS(G12C) [3]) | inhibition at 0.625 µM (KRAS(G12C) [3]) | inhibition at 1.25 µM (KRAS(G12C) [3]) | inhibition at 2.5 µM (KRAS(G12C) [3]) | inhibition at 5 µM (KRAS(G12C) [3]) | Structure (SMILES) |
| --- | --- | --- | --- | --- | --- | --- | --- | --- | --- | --- | --- | --- | --- |
| > 1000 nM | – | – | 33 to 66% | 100 to 1000 nM | > 1000 nM | – | – | – | – | – | – | – | C=CC(=O)N1CCN(c2nc(OC[C@@H]3CCN(CCC(=O)c4cc(C(C)C)c(O)cc4O)C3)nc3c2CCN(c2cccc4cccc(Cl)c24)C3)C[C@@H]1CC#N [Compound 186, 2-((S)-1-acryloyl-4-(7-(8-chloronaphthalen-1-yl)-2-(((R)-1-(3-(2,4-dihydroxy-5-isopropylphenyl)-3-oxopropyl)pyrrolidin-3-yl)methoxy)-5,6,7,8-tetrahydropyrido[3,4-d]pyrimidin-4-yl)piperazin-2-yl)acetonitrile, trifluoroacetic acid] |
| > 1000 nM | – | > 1000 nM | < 33% | > 1000 nM | – | > 1000 nM | < 33% | < 33% | < 33% | < 33% | < 33% | < 33% | C=CC(=O)N1CCN(c2nc(OC[C@@H]3CCN(C(=O)c4cc(CC)c(O)cc4O)C3)nc3c2CCN(c2cccc4cccc(Cl)c24)C3)C[C@@H]1CC#N [Compound 158, 2-((S)-1-acryloyl-4-(7-(8-chloronaphthalen-1-yl)-2-(((R)-1-(5-ethyl-2,4-dihydroxybenzoyl)pyrrolidin-3-yl)methoxy)-5,6,7,8-tetrahydropyrido[3,4-d]pyrimidin-4-yl)piperazin-2-yl)acetonitrile] |
| > 1000 nM | – | > 1000 nM | < 33% | > 1000 nM | – | – | < 33% | < 33% | < 33% | < 33% | < 33% | < 33% | C=CC(=O)N1CCN(c2nc(OC[C@@H]3CCN(C(=O)c4cc(C(C)C)c(O)cc4O)C3)nc3c2CCN(c2cccc4cccc(Cl)c24)C3)C[C@@H]1CC#N [Compound 157, 2-((S)-1-acryloyl-4-(7-(8-chloronaphthalen-1-yl)-2-(((R)-1-(2,4-dihydroxy-5-isopropylbenzoyl)pyrrolidin-3-yl)methoxy)-5,6,7,8-tetrahydropyrido[3,4-d]pyrimidin-4-yl)piperazin-2-yl)acetonitrile] |
